In the OligoGym collection:
Oligonucleotides are given in HELM: sugar(base)linkage, 5' to 3'; d 2'-deoxyribose, r ribose, m 2'-O-methylribose, p phosphate. ss, as = sense and antisense strand

These substances were tested against Cacnb1 (rat) (assay: reporter assay of Huesken 2005). Conditions: siRNA.
Also: test concentration or dose not given here.

Compared with “RNA1{r(C)p.r(C)p.r(C)p.r(G)p.r(C)p.r(C)p.r(A)p.r(A)p.r(G)p.r(A)p.r(C)p.r(A)p.r(C)p.r(C)p.r(U)p.r(U)p.r(U)p.r(G)p.r(A)p.d(T)p.d(T)}|RNA2{r(U)p.r(C)p.r(A)p.r(A)p.r(A)p.r(G)p.r(G)p.r(U)p.r(G)p.r(U)p.r(C)p.r(U)p.r(U)p.r(G)p.r(G)p.r(C)p.r(G)p.r(G)p.r(G)p.d(A)p.d(T)}$$$RNA1{StrandType:ss}|RNA2{StrandType:as}$”, “RNA1{r(C)p.r(C)p.r(U)p.r(G)p.r(G)p.r(A)p.r(C)p.r(G)p.r(A)p.r(G)p.r(A)p.r(A)p.r(C)p.r(C)p.r(A)p.r(A)p.r(U)p.r(U)p.r(G)p.d(T)p.d(T)}|RNA2{r(C)p.r(A)p.r(A)p.r(U)p.r(U)p.r(G)p.r(G)p.r(U)p.r(U)p.r(C)p.r(U)p.r(C)p.r(G)p.r(U)p.r(C)p.r(C)p.r(A)p.r(G)p.r(G)p.d(A)p.d(T)}$$$RNA1{StrandType:ss}|RNA2{StrandType:as}$” is higher in normalised inhibition (eCFP-eYFP dual reporter): 57.6% for the first, 80.2% for the second.

Going from “RNA1{r(C)p.r(C)p.r(U)p.r(U)p.r(A)p.r(G)p.r(C)p.r(C)p.r(C)p.r(A)p.r(G)p.r(C)p.r(U)p.r(C)p.r(G)p.r(A)p.r(G)p.r(A)p.r(A)p.d(T)p.d(T)}|RNA2{r(U)p.r(U)p.r(C)p.r(U)p.r(C)p.r(G)p.r(A)p.r(G)p.r(C)p.r(U)p.r(G)p.r(G)p.r(G)p.r(C)p.r(U)p.r(A)p.r(A)p.r(G)p.r(G)p.d(C)p.d(C)}$$$RNA1{StrandType:ss}|RNA2{StrandType:as}$” to “RNA1{r(C)p.r(G)p.r(A)p.r(A)p.r(A)p.r(C)p.r(U)p.r(C)p.r(U)p.r(G)p.r(U)p.r(C)p.r(U)p.r(A)p.r(C)p.r(A)p.r(C)p.r(G)p.r(G)p.d(T)p.d(T)}|RNA2{r(C)p.r(C)p.r(G)p.r(U)p.r(G)p.r(U)p.r(A)p.r(G)p.r(A)p.r(C)p.r(A)p.r(G)p.r(A)p.r(G)p.r(U)p.r(U)p.r(U)p.r(C)p.r(G)p.d(G)p.d(C)}$$$RNA1{StrandType:ss}|RNA2{StrandType:as}$”, the normalised inhibition (eCFP-eYFP dual reporter) falls from 76.8% to 44%.

Compared with “RNA1{r(C)p.r(G)p.r(A)p.r(G)p.r(C)p.r(G)p.r(C)p.r(U)p.r(C)p.r(C)p.r(A)p.r(A)p.r(C)p.r(A)p.r(C)p.r(U)p.r(C)p.r(G)p.r(C)p.d(T)p.d(T)}|RNA2{r(G)p.r(C)p.r(G)p.r(A)p.r(G)p.r(U)p.r(G)p.r(U)p.r(U)p.r(G)p.r(G)p.r(A)p.r(G)p.r(C)p.r(G)p.r(C)p.r(U)p.r(C)p.r(G)p.d(A)p.d(T)}$$$RNA1{StrandType:ss}|RNA2{StrandType:as}$”, “RNA1{r(C)p.r(G)p.r(U)p.r(C)p.r(A)p.r(G)p.r(A)p.r(C)p.r(U)p.r(C)p.r(C)p.r(G)p.r(A)p.r(C)p.r(G)p.r(U)p.r(G)p.r(U)p.r(C)p.d(T)p.d(T)}|RNA2{r(G)p.r(A)p.r(C)p.r(A)p.r(C)p.r(G)p.r(U)p.r(C)p.r(G)p.r(G)p.r(A)p.r(G)p.r(U)p.r(C)p.r(U)p.r(G)p.r(A)p.r(C)p.r(G)p.d(G)p.d(C)}$$$RNA1{StrandType:ss}|RNA2{StrandType:as}$” is higher in normalised inhibition (eCFP-eYFP dual reporter): 15.2% for the first, 77% for the second.

First: RNA1{r(C)p.r(U)p.r(A)p.r(U)p.r(C)p.r(C)p.r(C)p.r(G)p.r(C)p.r(C)p.r(A)p.r(A)p.r(G)p.r(A)p.r(C)p.r(A)p.r(C)p.r(C)p.r(U)p.d(T)p.d(T)}|RNA2{r(A)p.r(G)p.r(G)p.r(U)p.r(G)p.r(U)p.r(C)p.r(U)p.r(U)p.r(G)p.r(G)p.r(C)p.r(G)p.r(G)p.r(G)p.r(A)p.r(U)p.r(A)p.r(G)p.d(C)p.d(G)}$$$RNA1{StrandType:ss}|RNA2{StrandType:as}$
Second: RNA1{r(C)p.r(U)p.r(G)p.r(A)p.r(G)p.r(G)p.r(U)p.r(A)p.r(C)p.r(A)p.r(G)p.r(A)p.r(G)p.r(U)p.r(G)p.r(A)p.r(A)p.r(A)p.r(U)p.d(T)p.d(T)}|RNA2{r(A)p.r(U)p.r(U)p.r(U)p.r(C)p.r(A)p.r(C)p.r(U)p.r(C)p.r(U)p.r(G)p.r(U)p.r(A)p.r(C)p.r(C)p.r(U)p.r(C)p.r(A)p.r(G)p.d(C)p.d(C)}$$$RNA1{StrandType:ss}|RNA2{StrandType:as}$
The normalised inhibition (eCFP-eYFP dual reporter) of the first is higher: 70.7% for the first, 59.1% for the second.

Compared with “RNA1{r(C)p.r(U)p.r(G)p.r(G)p.r(C)p.r(U)p.r(G)p.r(A)p.r(G)p.r(G)p.r(U)p.r(A)p.r(C)p.r(A)p.r(G)p.r(A)p.r(G)p.r(U)p.r(G)p.d(T)p.d(T)}|RNA2{r(C)p.r(A)p.r(C)p.r(U)p.r(C)p.r(U)p.r(G)p.r(U)p.r(A)p.r(C)p.r(C)p.r(U)p.r(C)p.r(A)p.r(G)p.r(C)p.r(C)p.r(A)p.r(G)p.d(G)p.d(C)}$$$RNA1{StrandType:ss}|RNA2{StrandType:as}$”, “RNA1{r(C)p.r(U)p.r(G)p.r(G)p.r(U)p.r(G)p.r(G)p.r(A)p.r(U)p.r(C)p.r(G)p.r(G)p.r(G)p.r(A)p.r(G)p.r(G)p.r(C)p.r(U)p.r(G)p.d(T)p.d(T)}|RNA2{r(C)p.r(A)p.r(G)p.r(C)p.r(C)p.r(U)p.r(C)p.r(C)p.r(C)p.r(G)p.r(A)p.r(U)p.r(C)p.r(C)p.r(A)p.r(C)p.r(C)p.r(A)p.r(G)p.d(T)p.d(C)}$$$RNA1{StrandType:ss}|RNA2{StrandType:as}$” is higher in normalised inhibition (eCFP-eYFP dual reporter): 34.8% for the first, 40.7% for the second.

First: RNA1{r(C)p.r(U)p.r(U)p.r(G)p.r(G)p.r(A)p.r(A)p.r(G)p.r(C)p.r(C)p.r(U)p.r(A)p.r(C)p.r(U)p.r(G)p.r(G)p.r(A)p.r(A)p.r(G)p.d(T)p.d(T)}|RNA2{r(C)p.r(U)p.r(U)p.r(C)p.r(C)p.r(A)p.r(G)p.r(U)p.r(A)p.r(G)p.r(G)p.r(C)p.r(U)p.r(U)p.r(C)p.r(C)p.r(A)p.r(A)p.r(G)p.d(T)p.d(A)}$$$RNA1{StrandType:ss}|RNA2{StrandType:as}$
Second: RNA1{r(G)p.r(A)p.r(A)p.r(C)p.r(C)p.r(G)p.r(C)p.r(A)p.r(C)p.r(C)p.r(A)p.r(U)p.r(G)p.r(G)p.r(C)p.r(U)p.r(A)p.r(C)p.r(C)p.d(T)p.d(T)}|RNA2{r(G)p.r(G)p.r(U)p.r(A)p.r(G)p.r(C)p.r(C)p.r(A)p.r(U)p.r(G)p.r(G)p.r(U)p.r(G)p.r(C)p.r(G)p.r(G)p.r(U)p.r(U)p.r(C)p.d(A)p.d(G)}$$$RNA1{StrandType:ss}|RNA2{StrandType:as}$
The normalised inhibition (eCFP-eYFP dual reporter) of the first is higher: 60.9% for the first, 49% for the second.

Compared with “RNA1{r(G)p.r(A)p.r(G)p.r(A)p.r(U)p.r(C)p.r(C)p.r(C)p.r(U)p.r(A)p.r(U)p.r(G)p.r(G)p.r(A)p.r(G)p.r(G)p.r(U)p.r(C)p.r(U)p.d(T)p.d(T)}|RNA2{r(A)p.r(G)p.r(A)p.r(C)p.r(C)p.r(U)p.r(C)p.r(C)p.r(A)p.r(U)p.r(A)p.r(G)p.r(G)p.r(G)p.r(A)p.r(U)p.r(C)p.r(U)p.r(C)p.d(T)p.d(T)}$$$RNA1{StrandType:ss}|RNA2{StrandType:as}$”, “RNA1{r(G)p.r(A)p.r(G)p.r(U)p.r(G)p.r(A)p.r(A)p.r(A)p.r(U)p.r(C)p.r(G)p.r(A)p.r(G)p.r(C)p.r(G)p.r(G)p.r(A)p.r(U)p.r(C)p.d(T)p.d(T)}|RNA2{r(G)p.r(A)p.r(U)p.r(C)p.r(C)p.r(G)p.r(C)p.r(U)p.r(C)p.r(G)p.r(A)p.r(U)p.r(U)p.r(U)p.r(C)p.r(A)p.r(C)p.r(U)p.r(C)p.d(T)p.d(G)}$$$RNA1{StrandType:ss}|RNA2{StrandType:as}$” is higher in normalised inhibition (eCFP-eYFP dual reporter): 71.5% for the first, 84.9% for the second.
